Source: article PMC7995547, “ω‐Imidazolyl‐alkyl derivatives as new preclinical drug candidates for treating non‐alcoholic steatohepatitis” (Physiological Reports, 2021)

System: HFD‐induced NASH rat model (liver)
Assay: Oxidative stress (ROS status) in the liver, HFD-induced NASH rat model
Type: in vivo, Wistar rats
Details: for Dose dependence of the effect on SRA level: Pearson correlation / linear regression; for Increase in GR activity compared to disease group: I‐ol, I‐an groups overall; for Increase in GR activity compared to disease group / Decrease in SRA level compared to disease group / Decrease in TBARS level compared to disease group / Reduction of the effect of HFD on the SRA level / Reduction of the effect of HFD on the TBARS level: UDCA 40 mg/kg b.w.; for Decrease in SRA level compared to disease group: average over 0.4, 4, 40 mg/kg b.w. (I‐ol, I‐an), oral gavage daily, last 4 of 16 weeks HFD; for Decrease in TBARS level compared to disease group / Reduction of the effect of HFD on the SRA level / Reduction of the effect of HFD on the TBARS level: average over doses (I‐ol, I‐an)
Method: Studies were done using Wistar rats of female sex by the Institute of Pharmacology and Biochemistry at Minsk. The animals were 80–90 days old and weighed 180–200 g. They had free access to a liquid Lieber‐DeCarli (LDC) diet (Lieber et al., 2004) and were housed under standard conditions meaning a 12‐h light/dark cycle at 22 ± 2°C and 55 ± 5% humidity.
The rats were divided into 10 groups based on the diets and experimental substances administered (Figure 2).
Group 1 was designated as the first control group; it was fed a normal standard solid diet. Group 2, as the second control group, was fed a standard amount of fat as a part of the liquid “physiological,” non‐high fat LDC diet. All other groups received the liquid ‘disease‐causing’ LDC diet (Table 2), including a high content of unsaturated fatty acids.
Both LDC diets were in a liquid form as produced by ssniff‐Spezialdiäten GmbH, Soest (Germany). The feed was provided over the entire experimental period of 16 weeks; however, the corresponding experimental substances were only administered in the last four weeks (Figure 3).
The experimental substances I‐ol, I‐an, and UDCA were dissolved in a 0.8% aqueous HPMC gel to obtain the following concentrations: (1) I‐ol at 0.4, 4, and 40 mg/kg body weight (b.w.), (2) I‐an at 0.4, 4, and 40 mg/kg b.w., and (3) UDCA at 40 mg/kg b.w. The Group‐2 and −3 rats received only HPMC as placebo. Each test encompassed 6–8 rats that were put up in a separate cage. The rats were fed ad libitum, and their intake per cage was controlled daily. In order to ensure an exact daily reproducible dosage, the experimental substances or only HPMC was administered intragastrically via oral gavage. Basically, the drug therapy of a chronic disease is the more efficient the higher the adherence of the affected patients. This is generally higher with peroral administration than with any other form of application. At the end of the experiment, the animals were sacrificed under fasting conditions, by aorta dissection and exsanguination, after anesthetizing with an intraperitoneal injection of 5% pentobarbital solution.
The formation of ROS in the rat liver was measured using NADPH‐induced chemiluminescence as described by Müller‐Peddinghaus et al. (Muller‐Peddinghaus, 1987). Luminol and lucigenin were used for detecting the superoxide radical anion (SRA) and hydrogen peroxide. Liver pieces were homogenized in 0.1 M sodium phosphate buffer, pH 7.4; the homogenates were centrifuged at 9,000 × g at 0°C; and aliquots were used for subsequent measurements. Reduced glutathione (GSH) was estimated via a modified Ellman's method (Ellman, 1959), in which 0.2 mL of the liver homogenate supernatant was added to 1.6 mL of an EDTA/sodium phosphoric acid solution and the absorbance noted at 412 nm against blank values. GSH solution produced immediately before application served as the standard. The end products of the lipid peroxidation reaction were equivalent to the thiobarbituric acid‐reacting substances (TBARS), and their concentration was measured according to the method described by Buege et al. (Buege & Aust, 1978). Enzymatic activities of microsomal glutathione reductase (GR) and cytosolic glutathione peroxidase (GPx) were measured according to the methodology of Buko et al. (Buko et al., 2002). Catalase activity was determined according to the spectroscopic methodology described by Beers et al. (Beers & Sizer, 1952) using hydrogen peroxide as the substrate.

[1] = liver, highest concentration (40 mg/kg b.w.)

Structure (SMILES): CCCCCCCCCCCCn1ccnc1 [I‐an, 1‐imidazolyldodecane]
- Dose dependence of the effect on GSH level (0.4, 4, 40 mg/kg b.w.): weak, significant (p < 0.05), linear, dose‐dependent effect
- Dose dependence of the effect on SRA level (0.4, 4, 40 mg/kg b.w.): weak, significant (p < 0.05), linear, dose‐dependent effect
- Increase in GR activity compared to disease group (liver): no effect
- Decrease in SRA level compared to disease group (liver): 23%
- Decrease in TBARS level compared to disease group (liver): 35%
- Reduction of the effect of HFD on the SRA level (liver): 65%
- Reduction of the effect of HFD on the TBARS level (liver): 82%
- Decrease in hydrogen peroxide level compared to disease group [1]: 43%
- Hydrogen peroxide level below the reference values of group 1 [1]: 4%
- Increase in GSH level compared to disease group [1]: 63%
- Reduction of SRA level [1]: 75%
- Reduction of the effect of HFD on GSH level [1]: 87%

Structure (SMILES): OCCCCCCCCCCCCn1ccnc1 [I‐ol, 12‐imidazolyl‐1‐dodecanol]
- Dose dependence of the effect on hydrogen peroxide level (0.4, 4, 40 mg/kg b.w.): strong, very highly significant (p < 0.001), linear, dose‐dependent effect
- Dose dependence of the effect on SRA level (0.4, 4, 40 mg/kg b.w.): strong, very highly significant (p < 0.001), linear, dose‐dependent effect
- Increase in GR activity compared to disease group (liver): 28%
- Decrease in SRA level compared to disease group (liver): 21%
- Decrease in TBARS level compared to disease group (liver): 38%
- Reduction of the effect of HFD on the SRA level (liver): 60%
- Reduction of the effect of HFD on the TBARS level (liver): 87%
- Effect on GSH level (in words) (liver, compound overall): non‐significant trend toward an increasing GSH level
- Decrease in hydrogen peroxide level compared to disease group [1]: 50%
- Hydrogen peroxide level below the reference values of group 1 [1]: 16%
- SRA level below the reference value of control group 1 [1]: 24%
- Effect of HFD nullified, GR activity increased by (on an average) (liver, relative to the effect of HFD): 113%
